The values below come from ChEMBL document CHEMBL1221260, “Discovery of cannabinoid-1 receptor antagonists by virtual screening” (Bioorg Med Chem Lett, 2010).

A value given as a limit tells only on which side of the number the result lay.

One series addresses Cannabinoid receptor 1 (Homo sapiens, UniProt P21554). As to the kind of experiment: Inhibition of human CB1 receptor expressed in CHOK1 cells by luciferase reporter gene assay. The settings on record: for inhibition: CHO-K1, concentration not given here. The arrangement: concentration or dose not given beside the values. The class given is cell-based.
A short description of series [1]: Stability in rat plasma for 30 mins. The conditions noted are these: read-out: Stability. The class given is ADME, cell-free.
The subject of series [2] is Liver microsomes. As to the kind of experiment: Metabolic stability in rat liver microsomes. The class given is ADME, Microsome.
Series [3] deals with Liver microsomes. As to the kind of experiment: Metabolic stability in human liver microsomes. The class given is ADME, Microsome.
For series [4], the species on record is Homo sapiens. As to the kind of experiment: Plasma protein binding in human. The settings on record: read-out: PPB (converted).
Series [5] can be described thus: Plasma protein binding in rat. The class given is ADME, cell-free. The conditions noted are these: read-out: PPB (converted).
The species entered for series [6] is Homo sapiens. As to the kind of experiment: Stability in human plasma for 30 mins.

Cannabinoid receptor 1, sequence (P21554 whole entry): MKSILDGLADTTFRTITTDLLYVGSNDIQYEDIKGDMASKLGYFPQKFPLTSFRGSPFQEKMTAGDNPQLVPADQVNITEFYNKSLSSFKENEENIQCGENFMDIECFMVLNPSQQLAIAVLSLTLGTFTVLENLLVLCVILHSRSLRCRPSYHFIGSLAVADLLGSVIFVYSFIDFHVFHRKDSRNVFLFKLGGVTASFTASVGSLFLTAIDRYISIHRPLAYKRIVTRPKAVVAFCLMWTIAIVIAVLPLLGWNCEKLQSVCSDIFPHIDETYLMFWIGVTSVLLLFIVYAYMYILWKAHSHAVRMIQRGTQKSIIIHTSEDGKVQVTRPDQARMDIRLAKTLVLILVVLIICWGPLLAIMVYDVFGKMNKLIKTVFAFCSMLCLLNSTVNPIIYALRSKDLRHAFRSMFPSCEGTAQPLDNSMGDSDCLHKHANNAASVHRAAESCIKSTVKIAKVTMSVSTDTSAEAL

A word on the inhibition: it is the drop in the measured response relative to a control, in per cent. As to `CCOC(=O)c1c(NC(=O)Cc2ccccc2)sc2c1CCN(C(=O)OCC)C2`, the inhibition against Cannabinoid receptor 1 stood at 94%. Usually IC50 stands for the midpoint of a concentration-inhibition curve. For the molecule `C=C(C)Cn1c(SCC(=O)OC)nc2sc3c(c2c1=O)CC(C)(C)OC3`, on Cannabinoid receptor 1, it took 290 nM to reach half-maximal inhibition (IC50). With `O=C1N=C(Nc2cccc(C(F)(F)F)c2)S/C1=C\c1cccnc1`, the remaining at 0.5 h (in series [1]; in the series filed under Homo sapiens [6]) was > 99% each time. In addition, the Stability turned out to be 96.1% in the series with Liver microsomes [2] and 87% in the series with Liver microsomes [3]. Also, the fraction unbound is 0.058 in the series listed under Homo sapiens [4] and 0.034 in series [5]. Besides, half-maximal inhibition against Cannabinoid receptor 1 (IC50) was put at 125 nM. Regarding `O=C(NC[C@@H]1CCCO1)c1nc(-c2ccc(Cl)cc2)n2c1CCCCC2`, the inhibition against Cannabinoid receptor 1 was 63%. As for `Cc1ccc(-n2nc3c(c2NC(=O)c2ccco2)CS(=O)(=O)C3)c(C)c1`, on Cannabinoid receptor 1, the inhibition turned out to be 90%.

Take `COC(=O)c1ccc([C@@H]2CC(=O)N3C(=C2C#N)SC[C@]3(O)c2ccc(C)cc2)cc1`: on Cannabinoid receptor 1, the inhibition turned out to be 83%. Same read-out and setting: for `COC(=O)c1cc(S(=O)(=O)N2CCn3c2nc2ccccc23)c[nH]1` the value was 102%.
